Test results taken from article PMC10180054, “Design, Synthesis and Biological Evaluation of Novel Pleuromutilin Derivatives Containing 6-Chloro-1-R-1H-pyrazolo[3,4-d]pyrimidine-4-amino Side Chain” (Molecules, 2023).
In brackets after ≈: the same amount, converted by molar mass.

Experiments:
MRSA ATCC 43300 [1] = test: MIC/MBC by broth dilution (CLSI); assay type: cell-based, Staphylococcus aureus; details: for MBC / MIC: Staphylococcus aureus; for MBC: MRSA ATCC 43300, 99.9% of the bacteria killed; for MIC: MRSA ATCC 43300, broth dilution, 24 h, 37 °C, read-out: MIC
How it was run: (§1)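 CLSI broth dilution used twofold compound series from 64 to 0.0625 µg/mL (stocks in water with 2.5% DMSO and 2.5% Tween-80) and a final inoculum of 5 × 10^5 CFU/mL, in triplicate. For MBC, 25 µL from wells without visible growth was plated on MH agar and cultured 24 h at 37 °C.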

S. aureus 144 = test: MIC/MBC by broth dilution (CLSI); assay type: cell-based; details: Staphylococcus aureus; S. aureus 144 (clinical strain)
How it was run: as §1

S. aureus AD3 = test: MIC/MBC by broth dilution (CLSI); assay type: cell-based; details: Staphylococcus aureus; S. aureus AD3 (clinical strain)
How it was run: as §1

S. aureus ATCC 29213 = test: MIC/MBC by broth dilution (CLSI); assay type: cell-based; details: Staphylococcus aureus, ATCC29213; for MBC: S. aureus ATCC 29213; for MIC: S. aureus ATCC 29213, broth dilution, 24 h, 37 °C
How it was run: as §1

MRSA ATCC 43300 [2] = test: Constant concentration time–kill curves; assay type: cell-based, Staphylococcus aureus; details: for type of bactericidal kinetics: time–kill curves, 1 to 32 × MIC
Procedure: Time–kill kinetic assays were performed, which were used to investigate the in vitro bactericidal kinetic effect of compounds 12c, 19c, 22c and tiamulin.
Time–kill curve assays were established with the MIC value to investigate the antibacterial effect of constant drug concentration on MRSA. […] MRSA ATCC 43300 was incubated in MH broth at 37 °C for 4.5 h and diluted to 1 × 10^6 CFU/mL in MH broth. The saline control group was subjected to the same schedule but 0.9% saline water was added instead of the test compound. All the samples were incubated in an oscillating thermostatic at 37 °C, and then 100 μL of the mixture was extracted to 900 μL of sterile saline (0.9%) at 0, 3, 6, 9, 12 and 24 h, respectively. Samples were serially diluted 10-fold in sterile saline (0.9%) and inoculated onto agar plates. The colonies were counted after incubation at 37 °C for 24 h. Three independent experiments were performed according to our previous work. Time–kill curves were constructed by plotting the log10 CFU per millilitre versus time, and the change in bacterial concentration was determined.

MRSA ATCC 43300 [3] = test: Post-antibiotic effect (PAE); assay type: cell-based, Staphylococcus aureus
Procedure: PAE has been considered as pharmacodynamic assistance which provides a reference for the rational formulation of dosing regimen. PAE refers to the temporary suppression of bacterial growth following transient antibiotic treatment. PAE assays were conducted for compounds 12c and 22c.
PAE is calculated from growth curves on the difference in time required for the number (1 log10 CFU/mL) of drug-exposed and unexposed microbes. […] The PAE values of compounds 12c and 22c increased with increasing incubation time.
PAE of compounds 12c and 22c on MRSA ATCC 43300 was determined using MH broth according to our previous work. The final concentration of MRSA was 1 × 10^6 CFU/mL by dilution with MH broth. Compounds 12c, 22c and tiamulin were supplemented in the suspension at a final concentration of 2 × MIC and 4 × MIC, respectively. The negative control group contained untreated MRSA bacterial cells. The test tubes were incubated with a 37 °C constant temperature vibration incubator for 1 and 2 h. After incubation, the test compound was removed from the sample by diluting 1000-fold with the preheated MH broth. Next, 100 μL of suspension from each culture was 10-fold diluted in sterile saline and inoculated on MH agar plates at 0, 2, 4, 6 and 8 h after inoculation. The number of colonies was calculated after incubation at 37 °C for 24 h. The experiments were performed in triplicate.

MRSA ATCC 43300 [4] = test: Neutropenic murine thigh infection model; assay type: in vivo; details: neutropenic mice, 20 mg/kg, 24 h after dosing, n = 6/group
Procedure: Therefore, the in vivo efficacy of compounds 12c and 22c were assessed using the murine neutropenic thigh infection model. Mice groups treated with saline and tiamulin were chosen as the negative and positive controls.
Model experiments of neutropenic mouse thigh infection were manipulated as described in the literature. Female, six-week-old, specific-pathogen-free mice weighing approximately 23~26 g were used throughout the study. Mice were rendered neutropenic by injection of cyclophosphamide (Mead Johnson Pharmaceuticals, Evansville, IN) on day 4 (150 mg/kg) and day 1 (100 mg/kg) before the experiment. The neutrophil numbers in mice blood should be <0.1 × 10^9/L [34]. In total, 0.1 mL of MH broth of MRSA (10^7 CFU/mL) was inoculated into each thigh of the neutropenic mice. Mice were divided into 4 groups (6 mice per group), including control (sterile saline), compounds 12c, 22c and tiamulin groups. After 3 h post-infection, the corresponding drugs were injected into each mouse’s thigh. Mice were euthanized following intravenous injection for 24 h. Thigh tissue of each mouse was removed, collected, weighed and homogenized in 3 mL of ice sterile saline. Six ten-fold serial dilutions were performed and 25 μL of the bacterial solution from each tube was plated on MH agar plates. The resulting colonies were counted after 24 h incubation at 37 °C. The protocol for this study was reviewed and approved by the Institutional Animal Care and Use Committee of the South China Agricultural University.

16-HBE cells = test: Cytotoxicity MTT assay; assay type: cell-based, human; details: 1~8 μg/mL, 16 h
Procedure: (§2) The presence of compounds can influence cellular basic physiological processes, suppress proliferation and even reduce cell survival, etc. In the community, MRSA generally causes respiratory infection. Therefore, cytotoxicity was evaluated to explore the effect of compounds 12c and 22c on the viability of the respiratory tract cells 16-HBE (human bronchial epithelial cell line). RAW 264.7 (mouse peritoneal macrophage cell line) and Caco-2 (human epithelial colorectal adenocarcinoma cell line) were also used to evaluate the cytotoxicity of compounds 12c and 22c by MTT assay.
(§3) Cytotoxicity of the test compounds was assessed using the conventional MTT method. RAW 264.7 murine macrophage cells, Caco-2 cells and 16-HBE were used in this experiment. The cells were seeded into 96-well plates at a density of 1.0 × 10^5 cells per well. After 4 h at 37 °C, the cells were treated with compounds 12c and 22c at various concentrations and incubated at 37 °C for 16 h. Next, MTT (0.5 mg/mL in PBS, 100 μL/well) was added sequentially to each well in a humidified atmosphere of 95% air and 5% CO2 incubator and the incubation continued for an additional four hours. After incubation, the medium was peeled off and DMSO (150 μL/well) was added to dissolve the cells, and then the incubation was continued for 30 min. At the end of this period, the absorbance was measured at 490 nm by a microplate spectrophotometer (BIO-TEK Instruments, Winooski, VT, USA).

Caco-2 cells = test: Cytotoxicity MTT assay; assay type: cell-based, human; details: 1~8 μg/mL, 16 h
Procedure: as §2, §3

Row | MIC (MRSA ATCC 43300 [1]) [µg/mL] | MIC (S. aureus 144) [µg/mL] | MIC (S. aureus AD3) [µg/mL] | MIC (S. aureus ATCC 29213) [µg/mL] | Structure (SMILES) | MBC (MRSA ATCC 43300 [1]) [µg/mL] | MBC (S. aureus 144) [µg/mL] | MBC (S. aureus AD3) [µg/mL] | MBC (S. aureus ATCC 29213) [µg/mL] | MRSA killed in time–kill assay (MRSA ATCC 43300 [2]; 2 × MIC, 24 h incubation) [%] | reduction of MRSA in time–kill assay (MRSA ATCC 43300 [2]; 2 × MIC, 24 h incubation) [log10 CFU/mL] | type of bactericidal kinetics (MRSA ATCC 43300 [2]) | PAE (MRSA ATCC 43300 [3]; 2 × MIC, exposure for 1 h) [h] | PAE (MRSA ATCC 43300 [3]; 2 × MIC, exposure for 2 h) [h] | PAE (MRSA ATCC 43300 [3]; 4 × MIC, exposure for 1 h) [h] | PAE (MRSA ATCC 43300 [3]; 4 × MIC, exposure for 2 h) [h] | reduction of MRSA load in thigh vs growth control (MRSA ATCC 43300 [4]) [log10 CFU/mL] | also measured
1 | 0.5 (≈ 1.01 µM) | 1 (≈ 2.03 µM) | 1 (≈ 2.03 µM) | 1 (≈ 2.03 µM) | C=C[C@]1(C)C[C@@H](OC(=O)CSCCN(CC)CC)[C@]2(C)[C@H](C)CC[C@]3(CCC(=O)[C@H]32)[C@@H](C)[C@@H]1O [Tiamulin, tiamulin, reference compound] | 1 (≈ 2.03 µM) | 2 (≈ 4.05 µM) | 2 (≈ 4.05 µM) | 1 (≈ 2.03 µM) | 99.9 | −3.78 | time-dependent | 0.27 | 1.23 | 0.42 | 1.31 | −0.56 | –
2 | 0.25 (≈ 0.343 µM) | 0.5 (≈ 0.686 µM) | 0.125 (≈ 0.172 µM) | 0.25 (≈ 0.343 µM) | C=C[C@]1(C)C[C@@H](OC(=O)CSc2ccc(Nc3nc(Cl)nc4c3cnn4-c3cccc(C)c3)cc2)[C@]2(C)[C@H](C)CC[C@]3(CCC(=O)[C@H]32)[C@@H](C)[C@@H]1O [Compound 12c, 22-[4-(6-Chloro-1-(3-methylphenyl)-1H-pyrazolo[3,4-d]pyrimidine-4-yl)amino-Phenylsulfanyl]-22-deoxypleuromutilin] | 0.5 (≈ 0.686 µM) | 1 (≈ 1.37 µM) | 0.25 (≈ 0.343 µM) | 0.5 (≈ 0.686 µM) | 99.99 | −4.51 | time-dependent | 0.37 | 1.72 | 0.43 | 1.73 | −0.79 | MBC/MIC ratio (MRSA ATCC 43300 [1]; against MRSA): ≤ 2; reduction of MRSA in time–kill assay (MRSA ATCC 43300 [2]; 4 × MIC): −5.76 log10 CFU/mL; effect on viability of 16-HBE cells (16-HBE cells): did not affect the viability; effect on viability of Caco-2 cells (Caco-2 cells): did not affect the viability; melting point: 95 to 97 °C
